Experimental data taken from PubChem BioAssay AID1963831 (Molecular Pharmacology Branch, DTP, NCI, 2024).

Test system: 889142-216-R-J1-PDC complex spheroid viability
Experiment: Anticancer human tumor 889142-216-R-J1-PDC patient-derived bladder carcinoma cell line growth inhibition [POLQ]
Conditions: for IC50: curve of first compound; for viability, T/C: stronger effect = lower value
Method: Multicellular complex tumor spheroid response to Polymerase (POL) inhibitors (novobiocin, ART-558, RP6685) in combination with a variety of drugs and investigational agents in selected tumor cell lines
The POL inhibitors (novobiocin, ART-558, and RP6685) were evaluated both individually and in combination with standard of care and investigational anticancer small molecules within a complex spheroid model of solid tumors. . Complex spheroids include a stromal component modeled by human endothelial cells (HUVEC) and fibroblasts modeled by human mesenchymal stem cells (MSCs). The concentration ranges selected for each drug and investigational agent were based upon clinically achievable concentrations if the clinical Cmax of the agent was known.
Compounds. The drugs and investigational agents: novobiocin (NSC847541), ART-558 (NSC835418), RP-6685 (NSC848927), peposertib (NSC802822), ceralasertib (NSC780249), elimusertib (NSC800525), camonsertib (NSC841442), AZD-1390 (NSC803789), olaparib (NSC753686), talazoparib (NSC767125), rucaparib (NSC756644), sotorasib (NSC818433), MRTX-1133 (NSC836407), SN-38 (NSC673596), topotecan (NSC609699), epotoside (NSC141540), doxorubicin (NSC123127), gemcitabine (NSC613327), 5-fluorouracil (NSC19893), paclitaxel (NSC125973), vemurafenib (NSC761431), MSA-2 (NSC828583), SN-011 (NSC837082), adavosertib (NSC754352), prexasertib (NSC758257), carboplatin (NSC241240) and oxaliplatin (NSC266046), were obtained from the National Cancer Institute (NCI) Developmental Therapeutics Program Chemical Repository (21). The FDA-approved anticancer drug set is available from the Developmental Therapeutics Program at https://dtp.cancer.gov/organization/dscb/obtaining/. […] The stock solutions were prepared in dimethyl sulfoxide (DMSO, Sigma-Aldrich, St. Louis, MO, cat. D2650), except for the platinum compounds which were prepared in saline (Quality Biological, Gaithersburg, MD, cat. 114-055-101), at 800-fold the tested concentration and stored at -70 degrees C prior to their use. All drugs and investigational agents were tested over a range starting from a high concentration at or near the clinical Cmax and decreasing in half-log increments. If the clinical Cmax for an agent had not been determined, the highest concentration tested was 10 microM, except for SN-38, which was tested at a high concentration of 1 microM.
Cell Culture. All cells were maintained in an incubator at 37 degrees C and 5% CO2 with 95% humidity. The PDC lines were cultured according to standard operating procedures established by the NCI PDMR (https://pdmr.cancer.gov). Table 3 of the manuscript, lists the cell lines along with the number of the three cell types plated to form the mct-spheroids and media for tumor cell growth. After thawing, all PDC lines, except 997537-175-T-J1-PDC and 415267-285-R-J2-PDC, were cultured in Matrigel-coated flasks prepared with a working solution of 1X Ham's F-12 nutrient mix, without supplementation (Thermo Fisher Scientific, cat. 11765054), 100 U/mL penicillin-streptomycin (Thermo Fisher Scientific, cat. 15140122), and 2.5% Matrigel (Corning Inc., Corning, NY, cat. 354248) for the first three passages. The two PDC lines 997537-175-T-J1-PDC and 415267-285-R-J2-PDC were cultured on uncoated flasks. The 857933-349-R-J2-PDC line was cultured in 6C/Colon 1B media containing advanced DMEM/F-12 (Thermo Fisher Scientific, cat. 12634028), 10 mM HEPES (Thermo Fisher Scientific, cat. 15630080), 1X GlutaMAX supplement (Thermo Fisher Scientific, cat. 35050061), 0.1 mg/mL primocin (InvivoGen, San Diego, CA, cat. ant-pm-2), 10% defined fetal bovine serum, heat inactivated (HyClone Laboratories Inc., Logan, UT, cat. SH30070.03HI), 50% L-WRN conditioned media (ATCC, cat. CRL-3276), 1.25 mM N-Acetyl-L-cysteine (Sigma-Aldrich, cat. A9165), 10 mM nicotinamide (Sigma-Aldrich, cat. N0636), 1X B-27 supplement (Thermo Fisher Scientific, cat. 17504044), 1X N-2 supplement (Thermo Fisher Scientific, cat. […]

[1] = second compound 0.0316 µM, first compound 0.0316 µM
[2] = second compound 0.0316 µM, first compound 0.1 µM
[3] = second compound 0.0316 µM, first compound 0.316 µM
[4] = second compound 0.0316 µM, first compound 1 µM
[5] = second compound 0.0316 µM, first compound 3.16 µM
[6] = second compound 0.0316 µM, first compound 10 µM
[7] = second compound 0.1 µM, first compound 0.0316 µM
[8] = second compound 0.1 µM, first compound 0.1 µM
[9] = second compound 0.1 µM, first compound 0.316 µM
[10] = second compound 0.1 µM, first compound 1 µM
[11] = second compound 0.1 µM, first compound 3.16 µM
[12] = second compound 0.1 µM, first compound 10 µM
[13] = second compound 0.316 µM, first compound 0.0316 µM
[14] = second compound 0.316 µM, first compound 0.1 µM
[15] = second compound 0.316 µM, first compound 0.316 µM
[16] = second compound 0.316 µM, first compound 1 µM
[17] = second compound 0.316 µM, first compound 3.16 µM
[18] = second compound 0.316 µM, first compound 10 µM
[19] = second compound 1 µM, first compound 0.0316 µM
[20] = second compound 1 µM, first compound 0.1 µM
[21] = second compound 1 µM, first compound 0.316 µM
[22] = second compound 1 µM, first compound 1 µM
[23] = second compound 1 µM, first compound 3.16 µM
[24] = second compound 1 µM, first compound 10 µM
[25] = second compound 3.16 µM, first compound 0.0316 µM
[26] = second compound 3.16 µM, first compound 0.1 µM
[27] = second compound 3.16 µM, first compound 0.316 µM
[28] = second compound 3.16 µM, first compound 1 µM
[29] = second compound 3.16 µM, first compound 3.16 µM
[30] = second compound 3.16 µM, first compound 10 µM
[31] = second compound 10 µM, first compound 0.0316 µM
[32] = second compound 10 µM, first compound 0.1 µM
[33] = second compound 10 µM, first compound 0.316 µM
[34] = second compound 10 µM, first compound 1 µM
[35] = second compound 10 µM, first compound 3.16 µM
[36] = second compound 10 µM, first compound 10 µM
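Also: spheroids exposed to compounds for seven days.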
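For viability, T/C in this document: 100% = DMSO vehicle control viability.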

For COc1cc(C2c3cc4c(cc3C(OC3OC5COC(C)OC5C(O)C3O)C3COC(=O)C23)OCO4)cc(OC)c1O (stereo unspecified) + COC1C(OC(N)=O)C(O)C(Oc2ccc3c(O)c(NC(=O)c4ccc(O)c(CC=C(C)C)c4)c(=O)oc3c2C)OC1(C)C, the IC50 (second compound 0.0316 µM) was greater than 10000 nM, the IC50 (second compound 0.1 µM) was greater than 10000 nM and the IC50 (second compound 0.316 µM) was greater than 10000 nM. It also gave an IC50 (second compound 1 µM) of 10000 nM, an IC50 (second compound 3.16 µM) greater than 10000 nM and an IC50 (second compound 10 µM) greater than 10000 nM. It also gave a viability, T/C [1] of 93.7%, a viability, T/C [2] of 81.6% and a viability, T/C [3] of 52%. For the same compound, the viability, T/C [4] was 57.3%, the viability, T/C [5] was 74% and the viability, T/C [6] was 52.9%. For the same compound, the viability, T/C [7] was 87.1%, the viability, T/C [8] was 87.2% and the viability, T/C [9] was 63%. For the same compound, the viability, T/C [10] was 56.3%, the viability, T/C [11] was 70.4% and the viability, T/C [12] was 50.4%. For the same compound, the viability, T/C [13] was 110%, the viability, T/C [14] was 88.8% and the viability, T/C [15] was 66.1%. It also gave a viability, T/C [16] of 56.2%, a viability, T/C [17] of 60.3% and a viability, T/C [18] of 52.9%. For the same compound, the viability, T/C [19] was 91.5%, the viability, T/C [20] was 99.9% and the viability, T/C [21] was 53.4%. It also gave a viability, T/C [22] of 61%, a viability, T/C [23] of 60.4% and a viability, T/C [24] of 56%. For the same compound, the viability, T/C [25] was 94.9%, the viability, T/C [26] was 96.9% and the viability, T/C [27] was 75.3%. The viability, T/C [28] was 51%, the viability, T/C [29] was 58.1% and the viability, T/C [30] was 52.9%. The viability, T/C [31] was 108%, the viability, T/C [32] was 90.2% and the viability, T/C [33] was 56.7%. For the same compound, the viability, T/C [34] was 48.9%, the viability, T/C [35] was 64.5% and the viability, T/C [36] was 55.3%.
Compound COc1cccc2c1C(=O)c1c(O)c3c(c(O)c1C2=O)CC(O)(C(=O)CO)CC3OC1CC(N)C(O)C(C)O1 (stereo unspecified) + COC1C(OC(N)=O)C(O)C(Oc2ccc3c(O)c(NC(=O)c4ccc(O)c(CC=C(C)C)c4)c(=O)oc3c2C)OC1(C)C has an IC50 (second compound 0.0316 µM) of 170 nM, an IC50 (second compound 0.1 µM) of 164 nM and an IC50 (second compound 0.316 µM) of 173 nM. The IC50 (second compound 1 µM) was 173 nM, the IC50 (second compound 3.16 µM) was 254 nM and the IC50 (second compound 10 µM) was 219 nM. The viability, T/C [1] was 59.9%, the viability, T/C [2] was 68.7% and the viability, T/C [3] was 33.4%. It also gave a viability, T/C [4] of 2.42%, a viability, T/C [5] of 0.42% and a viability, T/C [6] of 0.92%. For the same compound, the viability, T/C [7] was 53.4%, the viability, T/C [8] was 67.9% and the viability, T/C [9] was 36%. For the same compound, the viability, T/C [10] was 4.22%, the viability, T/C [11] was 0.75% and the viability, T/C [12] was 0.62%. For the same compound, the viability, T/C [13] was 56.7%, the viability, T/C [14] was 67.5% and the viability, T/C [15] was 36.8%. The viability, T/C [16] was 1.29%, the viability, T/C [17] was 0.94% and the viability, T/C [18] was 0.7%. It also gave a viability, T/C [19] of 60.6%, a viability, T/C [20] of 63.1% and a viability, T/C [21] of 37.3%. It also gave a viability, T/C [22] of 3.64%, a viability, T/C [23] of 0.4% and a viability, T/C [24] of 1.06%. For the same compound, the viability, T/C [25] was 62.3%, the viability, T/C [26] was 59.1% and the viability, T/C [27] was 47.5%. For the same compound, the viability, T/C [28] was 2.54%, the viability, T/C [29] was 0.84% and the viability, T/C [30] was 0.98%. For the same compound, the viability, T/C [31] was 62%, the viability, T/C [32] was 62.5% and the viability, T/C [33] was 44.3%. The viability, T/C [34] was 2.05%, the viability, T/C [35] was 1.06% and the viability, T/C [36] was 0.92%.
Nc1ccn(C2OC(CO)C(O)C2(F)F)c(=O)n1 (stereo unspecified) + COC1C(OC(N)=O)C(O)C(Oc2ccc3c(O)c(NC(=O)c4ccc(O)c(CC=C(C)C)c4)c(=O)oc3c2C)OC1(C)C was tested, and the IC50 (second compound 0.0316 µM) was 830 nM, the IC50 (second compound 0.1 µM) was 225 nM and the IC50 (second compound 0.316 µM) was 202 nM. For the same compound, the IC50 (second compound 1 µM) was 250 nM, the IC50 (second compound 3.16 µM) was 180 nM and the IC50 (second compound 10 µM) was 533 nM. The viability, T/C [1] was 60.8%, the viability, T/C [2] was 49.5% and the viability, T/C [3] was 51.2%. The viability, T/C [4] was 49.7%, the viability, T/C [5] was 43.4% and the viability, T/C [6] was 27.4%. It also gave a viability, T/C [7] of 78.2%, a viability, T/C [8] of 60% and a viability, T/C [9] of 41%. It also gave a viability, T/C [10] of 43.5%, a viability, T/C [11] of 42.4% and a viability, T/C [12] of 28.4%. For the same compound, the viability, T/C [13] was 68.4%, the viability, T/C [14] was 56.6% and the viability, T/C [15] was 44.5%. The viability, T/C [16] was 38.9%, the viability, T/C [17] was 43.5% and the viability, T/C [18] was 31.8%. For the same compound, the viability, T/C [19] was 64.5%, the viability, T/C [20] was 58.3% and the viability, T/C [21] was 45.5%. It also gave a viability, T/C [22] of 42.1%, a viability, T/C [23] of 37.6% and a viability, T/C [24] of 30.3%. It also gave a viability, T/C [25] of 64.5%, a viability, T/C [26] of 52.4% and a viability, T/C [27] of 43.7%. The viability, T/C [28] was 43.7%, the viability, T/C [29] was 38.1% and the viability, T/C [30] was 31.4%. The viability, T/C [31] was 72.5%, the viability, T/C [32] was 60.2% and the viability, T/C [33] was 52.7%. It also gave a viability, T/C [34] of 45.3%, a viability, T/C [35] of 42.6% and a viability, T/C [36] of 30.5%.
